# Assay results from patent US20120094964A1, “SULFAMOYL BENZOIC ACID DERIVATIVES AS TRPM8 ANTAGONISTS” (priority 2009, published 2012).
# Target: T1, human TRPM8 (Homo sapiens, UniProt Q7Z2W7)
# T1 construct: expressed in transfected cells
# Experiment: In Vitro human TRPM8 Functional Assay (intracellular Ca2+, Fluo4, FDSS, menthol activation)
# Type: cell-based
# Conditions: HEK293 cells stably expressing human TRPM8; activation with L-(-)-Menthol; 11-point dose-response
# Experimental: In Vitro human TRPM8 Functional Assay
# The functional activity of compounds was determined by measuring changes in intracellular calcium concentration using a Ca^2+-sensitive fluorescent dye, Fluo4 (Molecular Probes). The changes in fluorescent signal were monitored by the cell imaging technology by Hamamatsu Photonics's Functional Drug Screening System (FDSS).
# HEK293 cells stably expressing human TRPM8 were grown in T175 flasks, in a 5% CO2 humidified incubator to about 80% confluence. Media composition consisted of Dulbecco's Modified Eagle Medium (high glucose), 10% fetal calf serum (FCS), 100 units/ml Penicillin, 100 microg/ml Streptomycin and 600 microg/ml Geneticine.
# 1. Plate-out HEK293-TRPM8 cells (40 microL medium containing 30,000 cells per well) into poly-D-lysine coated 384-well plates (BD FALCON) at 24 hours prior to assay.
# 1. […] 2. […] 3. Place the plate at room temperature in dark for 1 hour. 4. […] 5. Add 20 microL of compound solutions into each well and leave the plate for 5 minutes under the dark at room temperature. 6. Measure activity by FDSS as follows: • Set the assay plate on the stacker of FDSS • Start the detection of fluorescence intensity • After 30 sec, add 20 microL of 90 microM L-(−)-Menthol
# IC50 values for compounds of the present invention were determined from 11-point dose-response studies. Curves were generated using the average of duplicate wells for each data point. Finally, the IC50 values are calculated with the best-fit dose curve determined by XLfit (ID Business Solutions Ltd.).
# T1 sequence (Q7Z2W7 whole entry): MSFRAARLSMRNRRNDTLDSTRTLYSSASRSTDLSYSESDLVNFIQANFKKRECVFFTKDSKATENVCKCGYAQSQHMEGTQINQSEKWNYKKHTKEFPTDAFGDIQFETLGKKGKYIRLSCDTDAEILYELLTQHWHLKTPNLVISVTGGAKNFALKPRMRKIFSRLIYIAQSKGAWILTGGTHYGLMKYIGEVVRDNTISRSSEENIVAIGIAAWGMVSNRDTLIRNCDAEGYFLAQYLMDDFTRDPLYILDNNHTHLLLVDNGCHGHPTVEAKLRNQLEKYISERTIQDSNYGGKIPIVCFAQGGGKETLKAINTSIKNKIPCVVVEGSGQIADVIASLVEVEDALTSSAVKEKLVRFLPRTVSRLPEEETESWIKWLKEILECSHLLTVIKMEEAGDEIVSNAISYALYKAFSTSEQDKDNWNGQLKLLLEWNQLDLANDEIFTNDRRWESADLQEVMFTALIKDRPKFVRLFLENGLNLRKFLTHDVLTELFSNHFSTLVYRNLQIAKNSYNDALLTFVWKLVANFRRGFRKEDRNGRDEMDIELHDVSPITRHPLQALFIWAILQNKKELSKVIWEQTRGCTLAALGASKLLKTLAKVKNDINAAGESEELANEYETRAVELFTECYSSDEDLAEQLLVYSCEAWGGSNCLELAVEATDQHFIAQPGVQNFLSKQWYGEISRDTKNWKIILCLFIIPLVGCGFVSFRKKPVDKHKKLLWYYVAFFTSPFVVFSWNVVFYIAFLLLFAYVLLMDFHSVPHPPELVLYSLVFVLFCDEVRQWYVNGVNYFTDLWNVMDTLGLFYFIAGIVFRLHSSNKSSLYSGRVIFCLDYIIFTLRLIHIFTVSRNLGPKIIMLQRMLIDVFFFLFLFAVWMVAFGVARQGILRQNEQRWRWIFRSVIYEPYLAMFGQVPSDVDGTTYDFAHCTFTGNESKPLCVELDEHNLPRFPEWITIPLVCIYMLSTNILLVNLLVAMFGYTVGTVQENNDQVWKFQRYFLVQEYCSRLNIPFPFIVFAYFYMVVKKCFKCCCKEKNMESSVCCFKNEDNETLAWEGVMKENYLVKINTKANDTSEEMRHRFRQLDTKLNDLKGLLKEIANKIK
row,SMILES,IC50
1,"O=C(O)c1ccc(S(=O)(=O)N(Cc2ccccc2)c2ncc(C(F)(F)F)cc2Cl)cc1 [Example 1, 4-(N-Benzyl-N-(3-chloro-5-(trifluoromethyl)pyridin-2-yl)sulfamoyl)benzoic acid]",< 1 µM
2,"O=C(O)c1ccc(S(=O)(=O)N(Cc2ccccc2)c2ncccc2C(F)(F)F)cc1 [Example 2, 4-(N-Benzyl-N-(3-(trifluoromethyl)pyridin-2-yl)sulfamoyl)benzoic acid]",10 to 30 µM
3,"O=S(=O)(Nc1cccc(C(F)(F)F)c1)c1ccccc1 [Example 4, N-(3-(Trifluoromethyl)phenyl)benzenesulfonamide]",10 to 30 µM
4,"CN1CCN(C(=O)CN(c2cccc(C(F)(F)F)c2)S(=O)(=O)c2ccccc2)CC1 [Example 5, N-(2-(4-Methylpiperazin-1-yl)-2-oxoethyl)-N-(3-(trifluoromethyl)phenyl)benzenesulfonamide]",< 1 µM
5,"O=C(CN(c1cccc(C(F)(F)F)c1)S(=O)(=O)c1ccccc1)N1CCCCC1 [Example 6, N-(2-oxo-2-(piperidin-1-yl)ethyl)-N-(3-(trifluoromethyl)phenyl)benzenesulfonamide]",10 to 30 µM
6,"O=C(CN(c1cccc(C(F)(F)F)c1)S(=O)(=O)c1ccccc1)NCc1ccccc1 [Example 7, N-Benzyl-2-(N-(3-(trifluoromethyl)phenyl)benzenesulfonamido)acetamide]",10 to 30 µM
7,"O=C(CN(c1cccc(C(F)(F)F)c1)S(=O)(=O)c1ccccc1)Nc1ccccc1 [Example 8, N-Phenyl-2-(N-(3-(trifluoromethyl)phenyl)benzenesulfonamido)acetamide]",1 to 10 µM
8,"O=S(=O)(c1ccc(CO)cc1)N(Cc1ccccc1)c1ncc(C(F)(F)F)cc1Cl [Example 9, N-Benzyl-N-(3-chloro-5-(trifluoromethyl)pyridin-2-yl)-4-(hydroxymethyl)benzene-1-sulfonamide]",< 1 µM
9,"CN(C)C(=O)c1ccc(S(=O)(=O)N(Cc2ccccc2)c2ncc(C(F)(F)F)cc2Cl)cc1 [Example 12, 4-(Benzyl(3-chloro-5-(trifluoromethyl)pyridin-2-yl)sulfamoyl)-N,N-dimethylbenzamide]",< 1 µM
10,"O=C(O)c1ccc(S(=O)(=O)N(Cc2ccc(OC(F)(F)F)cc2)c2ncc(C(F)(F)F)cc2Cl)cc1 [Example 15, 4-(N-(3-Chloro-5-(trifluoromethyl)pyridin-2-yl)-N-(4-(trifluoromethoxy)benzyl)sulfamoyl)benzoic acid]",< 1 µM
11,"COc1ccc(CN(c2ncc(C(F)(F)F)cc2Cl)S(=O)(=O)c2ccc(C(=O)O)cc2)cc1 [Example 16, 4-(N-(3-Chloro-5-(trifluoromethyl)pyridin-2-yl)-N-(4-methoxybenzyl)sulfamoyl)benzoic acid]",< 1 µM
12,"O=C(O)c1ccc(S(=O)(=O)N(CCC2CCCCC2)c2ncc(C(F)(F)F)cc2Cl)cc1 [Example 19, 4-(N-(3-Chloro-5-(trifluoromethyl)pyridin-2-yl)-N-(2-cyclohexylethyl)sulfamoyl)benzoic acid]",< 1 µM
13,"O=C(O)c1ccc(S(=O)(=O)N(Cc2ccccc2F)c2ncc(C(F)(F)F)cc2Cl)cc1 [Example 20, 4-(N-(3-Chloro-5-(trifluoromethyl)pyridin-2-yl)-N-(2-fluorobenzyl)sulfamoyl)benzoic acid]",< 1 µM
14,"O=C(O)c1ccc(S(=O)(=O)N(Cc2ccccc2)c2cc(C(F)(F)F)ccn2)cc1 [Example 21, 4-(N-Benzyl-N-(4-(trifluoromethyl)pyridin-2-yl)sulfamoyl)benzoic acid]",1 to 10 µM
15,"O=C(O)c1ccc(S(=O)(=O)N(Cc2ccccc2)c2cccc(C(F)(F)F)n2)cc1 [Example 22, 4-(N-Benzyl-N-(6-(trifluoromethyl)pyridin-2-yl)sulfamoyl)benzoic acid]",1 to 10 µM
16,"O=C(O)c1ccc(S(=O)(=O)N(Cc2cccc(C(F)(F)F)c2)c2ncc(C(F)(F)F)cc2Cl)cc1 [Example 23, 4-(N-(3-Chloro-5-(trifluoromethyl)pyridin-2-yl)-N-(3-(trifluoromethyl)benzyl)sulfamoyl)benzoic acid]",< 1 µM
17,"COc1cccc(CN(c2ncc(C(F)(F)F)cc2Cl)S(=O)(=O)c2ccc(C(=O)O)cc2)c1 [Example 24, 4-(N-(3-Chloro-5-(trifluoromethyl)pyridin-2-yl)-N-(3-methoxybenzyl)sulfamoyl)benzoic acid]",< 1 µM
18,"O=C(O)c1ccc(S(=O)(=O)N(Cc2ccc(F)cc2F)c2ncc(C(F)(F)F)cc2Cl)cc1 [Example 26, 4-(N-(3-Chloro-5-(trifluoromethyl)pyridin-2-yl)-N-(2,4-difluorobenzyl)sulfamoyl)benzoic acid]",< 1 µM

row,SMILES,IC50
1,"Cc1ccc(CN(c2ncc(C(F)(F)F)cc2Cl)S(=O)(=O)c2ccc(C(=O)O)cc2)cc1 [Example 27, 4-(N-(3-Chloro-5-(trifluoromethyl)pyridin-2-yl)-N-(4-methylbenzyl)sulfamoyl)benzoic acid]",< 1 µM
2,"CC(C)c1ccc(CN(c2ncc(C(F)(F)F)cc2Cl)S(=O)(=O)c2ccc(C(=O)O)cc2)cc1 [Example 28, 4-(N-(3-Chloro-5-(trifluoromethyl)pyridin-2-yl)-N-(4-isopropylbenzyl)sulfamoyl)benzoic acid]",< 1 µM
3,"O=C(O)c1ccc(S(=O)(=O)N(CC2CC2)c2ncc(C(F)(F)F)cc2Cl)cc1 [Example 29, 4-(N-(3-Chloro-5-(trifluoromethyl)pyridin-2-yl)-N-(cyclopropylmethyl)sulfamoyl)benzoic acid]",1 to 10 µM
4,"O=C(O)c1ccc(S(=O)(=O)N(CCOc2ccc(F)cc2)c2ncc(C(F)(F)F)cc2Cl)cc1 [Example 30, 4-(N-(3-Chloro-5-(trifluoromethyl)pyridin-2-yl)-N-(2-(4-fluorophenoxy)ethyl)sulfamoyl)benzoic acid]",< 1 µM
5,"O=C(O)c1ccc(S(=O)(=O)N(Cc2ccc(Cl)cc2)c2ncc(C(F)(F)F)cc2Cl)cc1 [Example 32, 4-(N-(3-Chloro-5-(trifluoromethyl)pyridin-2-yl)-N-(4-chlorobenzyl)sulfamoyl)benzoic acid]",< 1 µM
6,"N#Cc1ccc(CN(c2ncc(C(F)(F)F)cc2Cl)S(=O)(=O)c2ccc(C(=O)O)cc2)cc1 [Example 33, 4-(N-(3-Chloro-5-(trifluoromethyl)pyridin-2-yl)-N-(4-cyanobenzyl)sulfamoyl)benzoic acid]",< 1 µM
7,"Cc1cccnc1N(Cc1ccccc1)S(=O)(=O)c1ccc(C(=O)O)cc1 [Example 34, 4-(N-Benzyl-N-(3-methylpyridin-2-yl)sulfamoyl)benzoic acid]",1 to 10 µM
8,"O=C(O)c1ccc(S(=O)(=O)N(Cc2ccccc2)c2ncccc2Cl)cc1 [Example 37, 4-(N-Benzyl-N-(3-chloropyridin-2-yl)sulfamoyl)benzoic acid]",1 to 10 µM
9,"Cc1cc(Cl)cnc1N(Cc1ccccc1)S(=O)(=O)c1ccc(C(=O)O)cc1 [Example 38, 4-(N-Benzyl-N-(5-chloro-3-methylpyridin-2-yl)sulfamoyl)benzoic acid]",< 1 µM
10,"O=C(O)c1ccc(S(=O)(=O)N(Cc2ccc(F)cc2Cl)c2ncc(C(F)(F)F)cc2Cl)cc1 [Example 40, 4-(N-(2-Chloro-4-fluorobenzyl)-N-(3-chloro-5-(trifluoromethyl)pyridin-2-yl)sulfamoyl)benzoic acid]",< 1 µM
11,O=C(O)c1ccc(S(=O)(=O)N(Cc2ccc(OCC(F)(F)F)cc2)c2ncc(C(F)(F)F)cc2Cl)cc1 [Example 41],< 1 µM
12,"O=C(O)c1ccc(S(=O)(=O)N(Cc2cc(F)cc(F)c2)c2ncc(C(F)(F)F)cc2Cl)cc1 [Example 42, 4-(N-(3-Chloro-5-(trifluoromethyl)pyridin-2-yl)-N-(3,5-difluorobenzyl)sulfamoyl)benzoic acid]",< 1 µM
13,"O=C(O)c1ccc(S(=O)(=O)N(Cc2c(F)cccc2F)c2ncc(C(F)(F)F)cc2Cl)cc1 [Example 44, 4-(N-(3-Chloro-5-(trifluoromethyl)pyridin-2-yl)-N-(2,6-difluorobenzyl)sulfamoyl)benzoic acid]",< 1 µM
14,"O=C(O)c1ccc(S(=O)(=O)N(Cc2ccc(F)c(F)c2)c2ncc(C(F)(F)F)cc2Cl)cc1 [Example 45, 4-(N-(3-Chloro-5-(trifluoromethyl)pyridin-2-yl)-N-(3,4-difluorobenzyl)sulfamoyl)benzoic acid]",< 1 µM
15,"O=C(O)c1ccc(S(=O)(=O)N(Cc2cc(F)ccc2F)c2ncc(C(F)(F)F)cc2Cl)cc1 [Example 46, 4-(N-(3-Chloro-5-(trifluoromethyl)pyridin-2-yl)-N-(2,5-difluorobenzyl)sulfamoyl)benzoic acid]",< 1 µM
16,"O=C(O)c1ccc(S(=O)(=O)N(Cc2ccc(Cl)c(Cl)c2)c2ncc(C(F)(F)F)cc2Cl)cc1 [Example 47, 4-(N-(3-Chloro-5-(trifluoromethyl)pyridin-2-yl)-N-(3,4-dichlorobenzyl)sulfamoyl)benzoic acid]",< 1 µM
17,"O=C(O)c1ccc(S(=O)(=O)N(Cc2cccc(Cl)c2)c2ncc(C(F)(F)F)cc2Cl)cc1 [Example 48, 4-(N-(3-Chloro-5-(trifluoromethyl)pyridin-2-yl)-N-(3-chlorobenzyl)sulfamoyl)benzoic acid]",< 1 µM
